Measured values published in patent US20250243488A1, “METHODS OF MODULATING PROGRANULIN EXPRESSION USING ANTISENSE OLIGONUCLEOTIDES TARGETING REGULATORY RNAS” (Camp4 Therapeutics Corporation, priority 2022, published 2025).
Oligonucleotides are written 5' to 3', each unit as a sugar letter and its base; * is a phosphorothioate linkage, no mark a phosphodiester; rarer units and linkages stand in square brackets, end groups in braces. Plain capitals give the bases only. e = 2'-O-(2-methoxyethyl) (MOE); l = locked nucleic acid (LNA); [5mC] = 5-methylcytosine; d = 2'-deoxy (DNA)

Test system: GRN mRNA
Test: GRN mRNA qPCR in SK-N-AS cells transfected with ASOs
Type: cell-based, human
Conditions: SK-N-AS; for hGRN mRNA FC / 120 nM FC (GRN mRNA): 120 nM
Procedure, shortened: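 Human neuroblastoma SK-N-AS cells transfected with ASOs at increasing concentrations (20 to 160 nM in initial titrations); GRN mRNA quantified by qPCR after 48 hours. Normalized to GAPDH and PPIA, fold change relative to steric non-targeting control ASO(s) (sNTC/CO-1589, with CO-3772 and CO-1929 in some series).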

[1] = Table 9, 48 hours post-transfection, normalized to CO-1589
[2] = Table 4, normalized to CO-3772 and CO-1589 (sNTC1)
[3] = Table 13, normalized to CO-1589
[4] = Table 11, 48 hours, normalized to CO-1589
[5] = Table 12, normalized to CO-1589
[6] = Table 3, normalized to CO-3772 and CO-1589 (sNTC1)
[7] = Table 6, normalized to CO-3772, CO-1589 and CO-1929
[8] = Table 10, 48 hours, normalized to CO-1589

CO-4633: ASO designed to target intergenic enhancers (eRNA) (antisense eT*e[5mC]*e[5mC]*eT*e[5mC]*eT*eG*e[5mC]*e[5mC]*eT*eG*eA*e[5mC]*eT*eA*eA*eT*eT*e[5mC]*eG)
hGRN mRNA FC [1]: 1.3 FC

CO-4597: ASO designed to target intergenic enhancers (eRNA) (antisense eA*eG*eG*e[5mC]*eG*eT*e[5mC]*e[5mC]*eT*eT*eT*e[5mC]*e[5mC]*eA*eT*eT*e[5mC]*e[5mC]*e[5mC]*eT)
hGRN mRNA FC [1]: 0.9 FC

CO-4363: longer ASO based on CO-3423 (antisense eG*eG*eA*e[5mC]*eT*eT*eG*eG*eG*eA*eG*eT*eG*eG*eT*eG*eA*e[5mC]*eT*eG*eA)
30 nM FC (GRN mRNA) [2]: 1.3 FC | 60 nM FC (GRN mRNA) [2]: 2.2 FC | 120 nM FC (GRN mRNA) [2]: 1.8 FC | 30 nM FC (GRN mRNA) [3]: 1.6 FC | 60 nM FC (GRN mRNA) [3]: 1.7 FC | 120 nM FC (GRN mRNA) [3]: 1.7 FC

CO-6430: ASO designed to target an intragenic enhancer RNA (eRNA) (eT*eG*e[5mC]*eG*e[5mC]*eA*e[5mC]*eA*e[5mC]*eA*eG*eG*eT*eA*e[5mC]*e[5mC]*eA*eG*eA*eG)
hGRN mRNA FC [4]: 1.0 FC

CO-6405: ASO based on parent ASO CO-3462 (antisense eG*eG*eT*eA*eG*dG*dA*eG*dA*dA*eT*d[5mC]*dG*e[5mC]*dT*dT*eT*dG*dG*eG*eA*eG*e[5mC]*eA)
30 nM FC (GRN mRNA) [5]: 1.1 FC | 60 nM FC (GRN mRNA) [5]: 1.3 FC | 120 nM FC (GRN mRNA) [5]: 1.3 FC

CO-6434: ASO designed to target an intragenic enhancer RNA (eRNA) (eT*e[5mC]*e[5mC]*eG*eA*eT*e[5mC]*eA*e[5mC]*e[5mC]*eT*eG*e[5mC]*eA*e[5mC]*eT*eG*e[5mC]*eT*eG)
hGRN mRNA FC [4]: 0.9 FC

CO-4590: ASO designed to target intergenic enhancers (eRNA) (antisense eG*eT*e[5mC]*eA*eA*eA*eG*eT*e[5mC]*eG*eA*eG*eG*e[5mC]*e[5mC]*eT*eA*e[5mC]*e[5mC]*e[5mC])
hGRN mRNA FC [1]: 1.3 FC

CO-4596: ASO designed to target intergenic enhancers (eRNA) (antisense e[5mC]*eA*eA*e[5mC]*eT*eA*eT*e[5mC]*eA*eG*eT*e[5mC]*eA*eA*eG*eG*eT*e[5mC]*eG*eG)
hGRN mRNA FC [1]: 1.0 FC

CO-4360: LNA/PS modified ASO based on CO-3423 (antisense eG*eG*eA*e[5mC]*lT*eT*eG*eG*eG*lA*eG*eT*eG*eG*lT*eG*eA*e[5mC]*eT*eG)
30 nM FC (GRN mRNA) [6]: 1.4 FC | 60 nM FC (GRN mRNA) [6]: 1.8 FC | 120 nM FC (GRN mRNA) [6]: 2.5 FC

CO-4639: ASO designed to target intergenic enhancers (eRNA) (antisense eG*eA*eA*eA*eT*eT*eT*eA*eT*eG*e[5mC]*eG*eG*e[5mC]*e[5mC]*eA*e[5mC]*eT*eG*eT)
hGRN mRNA FC [1]: 1.1 FC

CO-6431: ASO designed to target an intragenic enhancer RNA (eRNA) (eA*e[5mC]*eG*eG*eA*e[5mC]*e[5mC]*eT*e[5mC]*e[5mC]*eT*e[5mC]*eA*e[5mC]*eT*eA*eA*eG*e[5mC]*eT)
hGRN mRNA FC [4]: 0.8 FC

CO-6416: ASO based on parent ASOs CO-4363 and CO-4364 (eG*eG*lA*e[5mC]*eT*lT*eG*eG*lG*eA*eG*lT*eG*eG*lT*eG*eA*l[5mC]*eT*eG*eA)
30 nM FC (GRN mRNA) [3]: 1.4 FC | 60 nM FC (GRN mRNA) [3]: 1.6 FC | 120 nM FC (GRN mRNA) [3]: 2.2 FC

CO-4602: ASO designed to target intergenic enhancers (eRNA) (antisense eT*eA*e[5mC]*eT*e[5mC]*e[5mC]*eT*eA*eG*e[5mC]*e[5mC]*eT*eG*e[5mC]*eG*e[5mC]*e[5mC]*eT*eT*eT)
hGRN mRNA FC [1]: 1.2 FC

CO-4598: ASO designed to target intergenic enhancers (eRNA) (antisense eG*eT*eG*e[5mC]*eA*eA*eT*e[5mC]*eT*eG*eT*eG*eA*e[5mC]*e[5mC]*eT*eG*eT*eA*eA)
hGRN mRNA FC [1]: 1.1 FC

CO-4457: mixed PO/PS bond version of CO-3431 (antisense eA*eT*eTeGe[5mC]eAeGeTeGeAe[5mC]eGe[5mC]e[5mC]e[5mC]e[5mC]eGeT*eT*eA)
30 nM FC (GRN mRNA) [7]: 0.2 FC | 60 nM FC (GRN mRNA) [7]: 0.1 FC | 120 nM FC (GRN mRNA) [7]: 0.1 FC

CO-4644: ASO designed to target intergenic enhancers (eRNA) (antisense eG*eT*eT*eA*eA*eG*eT*eA*e[5mC]*eG*eT*eG*eA*e[5mC]*e[5mC]*e[5mC]*eT*eA*eT*e[5mC])
hGRN mRNA FC [1]: 1.1 FC

CO-6450: ASO designed to target an intragenic enhancer RNA (eRNA) (e[5mC]*eA*eG*eT*eG*eG*e[5mC]*e[5mC]*eT*eT*eG*eT*e[5mC]*e[5mC]*eA*eG*e[5mC]*eT*e[5mC]*eG)
hGRN mRNA FC [4]: 0.9 FC

CO-6514: ASO based on parent ASO CO-3462 (antisense eT*eA*eGeGeAeGeAeAeTe[5mC]eG*e[5mC]*eT*eT*eT*eG*eG*eG*eA*eG)
30 nM FC (GRN mRNA) [5]: 1.4 FC | 60 nM FC (GRN mRNA) [5]: 1.9 FC | 120 nM FC (GRN mRNA) [5]: 1.8 FC

CO-4611: ASO designed to target intergenic enhancers (eRNA) (antisense eT*eA*eT*eT*eA*eA*eT*e[5mC]*e[5mC]*eA*e[5mC]*eG*e[5mC]*eT*eG*eT*e[5mC]*e[5mC]*e[5mC]*eA)
hit identification (GRN mRNA dose escalation) (3.75 nM to 120 nM, 48 hours): initial hits | hGRN mRNA FC [1]: 1.4 FC | 3.75 nM FC (GRN mRNA) (Table 10, 3.75 nM, 48 hours, normalized to CO-1589): 1.1 FC | 7.5 nM FC (GRN mRNA) (Table 10, 7.5 nM, 48 hours, normalized to CO-1589): 1.1 FC | 15 nM FC (GRN mRNA) (Table 10, 15 nM, 48 hours, normalized to CO-1589): 1.1 FC | 30 nM FC (GRN mRNA) [8]: 1.1 FC | 60 nM FC (GRN mRNA) [8]: 1.1 FC | 120 nM FC (GRN mRNA) [8]: 1.3 FC

CO-4586: ASO designed to target intergenic enhancers (eRNA) (antisense eT*eG*eA*e[5mC]*eA*eA*eG*e[5mC]*eG*eG*eG*eA*eT*e[5mC]*eG*eG*eA*eG*eA*eG)
hGRN mRNA FC [1]: 0.9 FC

CO-4610: ASO designed to target intergenic enhancers (eRNA) (antisense eG*eG*eA*e[5mC]*eA*eT*eG*e[5mC]*eT*eG*eG*eA*eA*eA*eG*eT*e[5mC]*eT*eT*eA)
hGRN mRNA FC [1]: 1.2 FC

CO-4621: ASO designed to target intergenic enhancers (eRNA) (antisense e[5mC]*eG*e[5mC]*eT*eG*e[5mC]*eT*eG*eT*eT*eT*eG*eG*eA*eA*e[5mC]*eG*eA*eG*eT)
hGRN mRNA FC [1]: 1.2 FC

CO-6436: ASO designed to target an intragenic enhancer RNA (eRNA) (eT*eG*eT*e[5mC]*e[5mC]*e[5mC]*e[5mC]*eA*e[5mC]*eT*e[5mC]*eA*eG*eG*e[5mC]*e[5mC]*eA*e[5mC]*e[5mC]*eT)
hGRN mRNA FC [4]: 1.1 FC

CO-4635: ASO designed to target intergenic enhancers (eRNA) (antisense eG*eT*eT*eT*eG*e[5mC]*eA*eA*eT*eT*e[5mC]*eT*e[5mC]*eA*eG*eA*e[5mC]*e[5mC]*eT*eG)
hGRN mRNA FC [1]: 1.0 FC
